Literature values as cited in patent publication US20200016150A1, “TREATMENT OF THE PRURITIC SYMPTOMS OF LIVER DISEASE” (TREVI THERAPEUTICS, INC., priority 2018, published 2020).

Conditions: injectable formulations (i.e., IV or IM or SC)

Cl.Oc1ccc2c3c1OC1[C@@H](O)CC[C@@]4(O)[C@@H](C2)N(CC2CCC2)CC[C@]314 (stereo partly drawn) [nalbuphine, 17-(cyclobutylmethyl)-4,5α-epoxymorphinan-3, 6α, 14-triol, hydrochloride]
half-life: 2 to 3 h
